This note sets out measurements from ChEMBL document CHEMBL2203256, “Design and evaluation of azaindole-substituted N-hydroxypyridones as glyoxalase I inhibitors” (Bioorg Med Chem Lett, 2012).

In general, half-life refers to the time needed for the level to fall by half in the phase considered. As a reminder, the IC50 is the midpoint of a concentration-inhibition curve.

Data set [1] concerns Liver microsomes. Kind of data set: Clearance in human liver microsomes assessed per mg of protein at 1 uM after 30 mins in absence of NADPH. Format: ADME, Microsome. To be noted: 0.5 h. Background: Liver microsomes are a subcellular fraction often used to study metabolism.
Data set [2] relates to Liver. Kind of data set: Clearance in mouse liver microsomes assessed per mg of protein at 1 uM after 30 mins in absence of NADPH. It is filed as ADME, Microsome. The note with it: 0.5 h.
Data set [3] deals with Liver microsomes. Nature of the data set: Clearance in human liver microsomes assessed per mg of protein at 1 uM after 30 mins in presence of NADPH. Format: ADME, Microsome. To be noted: 0.5 h.
Data set [4] is described as follows: Half life in human serum at […]. Format: ADME, cell-free.
In data set [5] the test system is Liver. Kind of data set: Clearance in mouse liver microsomes assessed per mg of protein at 1 uM after 30 mins in presence of NADPH. It is filed as ADME, Microsome. The note with it: 0.5 h.
Data set [6] can be described thus: Half life in mouse serum at […]. Format: ADME, cell-free.
The next data set addresses Lactoylglutathione lyase (Homo sapiens, UniProt Q04760). Kind of data set: Inhibition of human recombinant GLO1 expressed in Escherichia coli BL21 assessed as decrease in reduced glutathione level after 1 hr by Ellman's method.

Chain of Lactoylglutathione lyase (Q04760 whole entry): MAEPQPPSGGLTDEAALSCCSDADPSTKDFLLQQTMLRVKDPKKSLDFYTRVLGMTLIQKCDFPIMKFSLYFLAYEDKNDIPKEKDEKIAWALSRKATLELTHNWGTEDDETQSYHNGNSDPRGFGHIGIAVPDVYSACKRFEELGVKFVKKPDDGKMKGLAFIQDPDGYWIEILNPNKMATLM

In the case of `O=c1cc(-c2ccccc2)cc(-c2ccccc2)n1O`, the CLint in the data set with Liver microsomes [1] turned out to be 6.6 µL/min/mg; with Liver [2] it was 6.8 µL/min/mg; with Liver microsomes [3] it was 16 µL/min/mg; in the data set with Liver [5], 28 µL/min/mg. Also, the values for the half-life in data set [4] and in data set [6] were 48.3 h and 7.33 h, respectively. At Lactoylglutathione lyase, the IC50 came to 1190 nM.

In the case of `COCCn1ccc2cc(-c3cc(-c4ccccc4)cc(=O)n3O)ccc21`, the IC50 on Lactoylglutathione lyase turned out to be 260 nM. Same read-out and setting: the same measure for `COCCCn1ccc2cc(-c3cc(-c4ccccc4)cc(=O)n3O)ccc21`: 300 nM; for `CCCCn1ccc2cc(-c3cc(-c4ccccc4)cc(=O)n3O)cnc21`: 300 nM. Take `CCCCCn1ccc2cc(-c3cc(-c4ccccc4)cc(=O)n3O)cnc21`: the half-inhibitory concentration (IC50) at Lactoylglutathione lyase came to 510 nM. For `O=c1cc(-c2ccsc2)cc(-c2ccccc2)n1O`, the IC50 at Lactoylglutathione lyase was determined as 1520 nM. On the same count and under the same terms, the figure for `O=c1cc(-c2cccnc2)cc(-c2ccccc2)n1O` is 8280 nM.

In the case of `O=c1cc(-c2ccc(C(F)(F)F)cc2)cc(-c2ccccc2)n1O`, on Lactoylglutathione lyase, the IC50 was 8130 nM.

Regarding `O=c1cc(-c2ccc(-c3ccccc3)cc2)cc(-c2ccccc2)n1O`, the IC50 on Lactoylglutathione lyase was 8400 nM. For `CCC#Cc1cc(-c2ccccc2)n(O)c(=O)c1`, the half-maximal inhibitory concentration (IC50) at Lactoylglutathione lyase was more than 10000 nM. Still for that read-out and setting: the figure for `CCCCc1cc(-c2ccccc2)n(O)c(=O)c1` is more than 10000 nM. On the same count and under the same terms, the same measure for `O=c1cc(-c2ccccc2)cc(-c2cnc3[nH]ccc3c2)n1O`: 280 nM; for `O=c1cc(-c2ccccc2)cc(-c2ccc3[nH]ccc3c2)n1O`: 250 nM; for `NC(=O)c1cccc(Cn2ccc3cc(-c4cc(-c5ccccc5)cc(=O)n4O)cnc32)c1`: 40 nM. `NC(=O)c1cccc(Cn2ccc3cc(-c4cc(-c5ccccc5)cc(=O)n4O)ccc32)c1`: the IC50 at Lactoylglutathione lyase was 480 nM. On the same count and under the same terms, the same measure for `COCCn1ccc2cc(-c3cc(-c4ccccc4)cc(=O)n3O)cnc21`: 14 nM.
